In ChEMBL document CHEMBL3045242, “Synthesis and Insect Growth Regulatory Activity of 1,5-Disubstituted Imidazoles with Non-terpene Chains” (Agric Biol Chem, 1991) one finds ED50 and Activity data, which are given here for 29 compounds.

The subject of data set [1] is Bombyx mori. The experiment in a line: Juvenile hormone like activity in fourth-instar larvae of Bombyx mori C146 x N137 assessed as induction of precocious metamorphosis applied topically. It is filed as functional.
For data set [2], the system named is Bombyx mori. Nature of the data set: Juvenile hormone like activity in fourth-instar larvae of Bombyx mori C137 x N137 assessed as induction of precocious metamorphosis applied topically. It counts as functional.
The test system of data set [3] is Bombyx mori. The experiment in a line: Juvenile hormone like activity in fourth-instar larvae of Bombyx mori C146 x N137 assessed as induction of precocious metamorphosis at > 40 ug/larvae applied topically. It counts as functional.
Data set [4] relates to Bombyx mori. Nature of the data set: Juvenile hormone like activity in fourth-instar larvae of Bombyx mori C137 x N137 assessed as induction of precocious metamorphosis at > 40 ug/larvae applied topically. It is filed as functional.
Data set [5] has as its system Bombyx mori. The experiment in a line: Juvenile hormone like activity in third-instar larvae of Bombyx mori assessed as spun cocoons at fifth-instar at 5 to 160 ug applied topically. It is filed as functional, organism-based.
The test system of data set [6] is Bombyx mori. The experiment in a line: Juvenile hormone like activity in third-instar larvae of Bombyx mori assessed as spun cocoons at fourth-instar at 5 to 160 ug applied topically. It counts as functional, organism-based.
Data set [7] concerns Bombyx mori. Nature of the data set: Toxicity in third-instar larvae of Bombyx mori at 160 ug applied topically. It counts as organism-based. Conditions: in vivo, topical_or_ocular.
Data set [8] has as its system Bombyx mori. The experiment in a line: Juvenile hormone like activity in fourth-instar larvae of Bombyx mori assessed as induction of precocious metamorphosis at 40 ug/larvae applied topically in presence of 1 ug of methoprene. It counts as functional.
In data set [9] the test system is Bombyx mori. Nature of the data set: Juvenile hormone like activity in fourth-instar larvae of Bombyx mori assessed as induction of precocious metamorphosis at 40 ug/larvae applied topically in presence of 0.5 ug of methoprene. It counts as functional.
Data set [10] concerns Bombyx mori. The experiment in a line: Juvenile hormone like activity in fourth-instar larvae of Bombyx mori assessed as induction of precocious metamorphosis at 40 ug/larvae applied topically in presence of 0.1 ug of methoprene. It counts as functional.
The subject of data set [11] is Bombyx mori. The experiment in a line: Juvenile hormone like activity in fourth-instar larvae of Bombyx mori assessed as induction of precocious metamorphosis at 40 ug/larvae applied topically. It is filed as functional.
Data set [12] concerns Bombyx mori. Nature of the data set: Juvenile hormone like activity in fourth-instar larvae of Bombyx mori C137 x N137 assessed as induction of precocious metamorphosis at > 60 ug/larvae applied topically. It is filed as functional.
The subject of data set [13] is Bombyx mori. The experiment in a line: Juvenile hormone like activity in fourth-instar larvae of Bombyx mori assessed as induction of precocious metamorphosis at 1 ug applied topically. It is filed as functional.

Active and inactive are the calls of the source. The calls are words filed in the database; no cut-off is given here.

As for `CC(C)n1cncc1-c1cccc(Oc2ccccc2)c1`, the ED50 amounted to 53.3 µg in the data set on Bombyx mori [1] and 21.6 µg in the data set on Bombyx mori [2].

As for `CCCCCCCCOc1cccc(-c2cncn2C(C)C)c1`, the Activity in the data set with Bombyx mori [3] came to 25%. For the same compound, in the data set with Bombyx mori [1], the ED50 is above 40 µg.

In the case of `CC(C)n1cncc1-c1cccc(OCc2cccc(Cl)c2)c1`, the Activity in the data set on Bombyx mori [3] came to 5%. Further, the ED50 in the data set with Bombyx mori [1] was above 40 µg.

Regarding `CC(C)=CCC/C(C)=C/COc1cccc(-c2cncn2C(C)C)c1`, the Activity in the data set on Bombyx mori [3] is listed as 0%. The ED50 with Bombyx mori [1] is above 40 µg.

In the case of `CCn1cncc1-c1cccc(OCc2ccccc2)c1`, in the data set with Bombyx mori [2], the ED50 came to 30.2 µg.

Turning to `COc1ccc(COc2cccc(-c3cncn3C(C)C)c2)cc1`, in the data set with Bombyx mori [3], the Activity was 15%. Further, in the data set on Bombyx mori [1], the ED50 is above 40 µg.

`c1ccc(COc2cccc(-c3cncn3Cc3ccccc3)c2)cc1`: the Activity in the data set with Bombyx mori [4] was 0%. Moreover, the ED50 in the data set on Bombyx mori [2] came to 40 µg.

With `CCCn1cncc1-c1cccc(OCc2ccccc2)c1`, the ED50 in the data set on Bombyx mori [2] worked out at 21.1 µg.

With `CC(C)n1cncc1-c1cccc(O)c1`, in the data set with Bombyx mori [4], the Activity was determined as 0%. Also, the ED50 in the data set with Bombyx mori [2] was above 40 µg.

Turning to `CC(C)Cn1cncc1-c1cccc(Oc2ccccc2)c1`, the outcome in the data set on Bombyx mori [5] and with Bombyx mori [6] was Active. In the data set with Bombyx mori [2], the ED50 was 14.7 µg.

Regarding `CC(C)n1cncc1-c1cccc(OCc2ccc(Cl)cc2)c1`, the Activity in the data set with Bombyx mori [3] was 20%. The ED50 with Bombyx mori [1] is above 40 µg.

`CC(C)n1cncc1-c1cccc(OCCc2ccccc2)c1`: in the data set with Bombyx mori [3], the Activity is reported as 20%. Besides, the ED50 with Bombyx mori [1] is above 40 µg.

For `CC(C)(C)Cn1cncc1-c1cccc(OCc2ccccc2)c1`, in the data set with Bombyx mori [4], the Activity was found to be 0%. Moreover, the ED50 in the data set on Bombyx mori [2] was 40 µg.

Consider `CC(C)n1cncc1-c1cccc(OCc2ccc(F)cc2)c1`, for which the ED50 in the data set with Bombyx mori [1] is above 40 µg.

For the compound `CC(C)n1cncc1-c1cccc(OCc2ccccc2)c1`, the Activity entry is “Toxic” in the data set with Bombyx mori [7]; 0% in the data set with Bombyx mori [8]; 30% with Bombyx mori [9]; 70% in the data set on Bombyx mori [10]; 100% in the data set with Bombyx mori [11]. Besides, the outcome in the data set on Bombyx mori [5] and in the data set on Bombyx mori [6] was Active. The figures for the ED50 in the data set on Bombyx mori [1] and in the data set on Bombyx mori [2] were 13.2 µg and 0.9 µg, respectively.

Consider `CC(C)COc1cccc(-c2cncn2C(C)C)c1`, for which the Activity with Bombyx mori [3] was found to be 35%. Moreover, the ED50 in the data set with Bombyx mori [1] is above 40 µg.

Take `Cn1cncc1-c1cccc(OCc2ccccc2)c1`: in the data set on Bombyx mori [12], the Activity is reported as 0%. The ED50 in the data set on Bombyx mori [2] was 60 µg.

For the compound `CC(C)n1cncc1-c1ccc(OCc2ccccc2)cc1`, in the data set on Bombyx mori [4], the Activity turned out to be 30%. Further, in the data set with Bombyx mori [2], the ED50 came to 40 µg.

On to `COc1cccc(-c2cncn2C(C)C)c1`, for which the Activity in the data set on Bombyx mori [3] is 0%. Further, in the data set with Bombyx mori [1], the ED50 is above 40 µg.

In the case of `CC(C)Cn1cncc1-c1ccc(Oc2ccccc2)cc1`, the Activity result with Bombyx mori [7] is reported as “Toxic”. Moreover, the ED50 with Bombyx mori [2] is 55.5 µg.

Consider `COC(C)(C)CCC[C@H](C)C/C=C/C(C)=C/C(=O)OC(C)C` [METHOPRENE], for which the Activity in the data set on Bombyx mori [13] stood at 0%.

As for `CC(C)n1cncc1-c1ccccc1OCc1ccccc1`, in the data set with Bombyx mori [4], the Activity is on record as 0%. Besides, the ED50 with Bombyx mori [2] amounted to 40 µg.

On to `CC(C)n1cncc1-c1cccc(OCc2ccccc2Cl)c1`, for which the Activity with Bombyx mori [3] is reported as 0%. The ED50 with Bombyx mori [1] was above 40 µg.

In the case of `CC(C)Cn1cncc1-c1cccc(OCc2ccccc2)c1`, in the data set on Bombyx mori [2], the ED50 amounted to 28 µg.

With `COc1cccc(COc2cccc(-c3cncn3C(C)C)c2)c1`, the Activity in the data set with Bombyx mori [3] was 25%. For the same compound, the ED50 in the data set on Bombyx mori [1] was above 40 µg.

As for `CCCCn1cncc1-c1cccc(OCc2ccccc2)c1`, in the data set on Bombyx mori [4], the Activity came out at 0%. Besides, the ED50 with Bombyx mori [2] came to 40 µg.

Turning to `CC(Oc1cccc(-c2cncn2C(C)C)c1)c1ccccc1` (stereo unspecified), the Activity in the data set on Bombyx mori [3] amounted to 0%. Besides, the ED50 in the data set with Bombyx mori [1] was above 40 µg.

Regarding `CCCCCCOc1cccc(-c2cncn2C(C)C)c1`, the Activity in the data set with Bombyx mori [3] turned out to be 35%. Also, in the data set on Bombyx mori [1], the ED50 is above 40 µg.

On to `CC(C)=CCC/C(C)=C/COc1cccc(-c2cncn2CC(C)C)c1`, for which, in the data set with Bombyx mori [4], the Activity is 0%. The ED50 with Bombyx mori [2] is above 40 µg.
